This is an account of results in EP4549575A1 (priority 2023, dated 2025).

Data set [1] is described as follows: Conformational studies based on circular dichroism. The class given is physicochemical. As for the experimental part: Conformational studies based on circular dichroism were performed under different conditions, such as: • 10 mM phosphate buffer, pH 7 • MES buffer 10 mM, pH 6 • Buffer acetate 10 mM, pH 5 • Phosphate buffer 10 mM/TFE (1:1) • TFE (trifluoroethanol)
Conformational studies based on circular dichroism were performed under different conditions such as: • 10 mM phosphate buffer, pH7 • Phosphate buffer 10mM/TFE, pH7 (1:1) • TFE (trifluoroethanol)
Conformational studies based on circular dichroism were performed under different conditions, such as: • 10 mM phosphate buffer, pH7 • MES buffer 10 mM, pH6 • Buffer acetate 10 mM, pH5 • Phosphate buffer 10 mM/TFE, pH7 (1:1) • TFE (trifluoroethanol)
Conformational studies based on circular dichroism were performed under different conditions, such as: • 10 mM phosphate buffer, pH7 • 10mM phosphate buffer/TFE (1:1) • TFE (trifluoroethanol)

In data set [2] the test system is human kidney proximal tubular cells (HKC-8).
For data set [3], the system named is P. viticola. The data set is classed as in vivo, Plasmopara viticola (Berk. et Curt.) Berl. and De Toni. Particulars: grapevine (Vitis vinifera cv. Pinot noir) leaf discs; mean ± standard deviation vs untreated control; concentration not given.
Data set [4] in a line: Chemical-physical properties (isoelectric point, net charge, solubility in water). The data set is classed as physicochemical. Conditions: for net charge: at pH 7.
Data set [5] relates to Agrobacterium tumefaciens GV3101. In words: Specificity: growth in liquid culture (OD620). The class given is cell-based. Particulars: 200 µM; LB medium; measured hourly up to 5 h.
Data set [6] has as its system P. capsici. The data set is classed as cell-based, Phytophthora capsici Leonian.
Data set [7] deals with P. ultimum. The data set is classed as cell-based, Pythium ultimum var. ultimum Trow.
[8] abbreviates: pH 7-TFE: phosphate buffer 10 mM/TFE (1:1).

Where “and” joins values, the source holds several entries; their conditions need not be identical. Equal values may be shown once. Square brackets hold non-standard residues; d marks the D form. Peptide text beside a SMILES is read from it. βAla = NCCC(=O)O

With `CSCC[C@@H]1NC(=O)[C@H](Cc2c[nH]c3ccccc23)NC(=O)[C@H](CCCNC(=N)N)NC(=O)CCNC(=O)[C@H](CCCNC(=N)N)NC(=O)[C@H](CCCNC(=N)N)NC(=O)[C@H](Cc2ccc(O)cc2)NC(=O)[C@H](C(C)C)NC(=O)[C@H](CC(C)C)NC1=O` [CP20, βA-R-W-M-L-V-Y-R-R] (cyclo(LVYRR[βAla]RWM)), in data set [1] (10 mM phosphate buffer, pH 7), the “Disordered (%)” value came to 32%, the “Helixes (%)” value was determined as 6%, the “Sheets (%)” value came out at 40% and the “Turns (%)” value came to 22%. In addition, in data set [1] (MES buffer 10 mM, pH 6), the “Disordered (%)” value stood at 34%, the “Helixes (%)” value was 8%, the “Sheets (%)” value is 37% and the “Turns (%)” value amounted to 21%. Moreover, in data set [1] (TFE (trifluoroethanol)), the “Disordered (%)” value is recorded as 33%, the “Helixes (%)” value was 10%, the “Sheets (%)” value amounted to 35% and the “Turns (%)” value was determined as 22%. Besides, in data set [1] (acetate buffer 10 mM, pH 5), the “Disordered (%)” value is given as 31%, the “Helixes (%)” value was found to be 7%, the “Sheets (%)” value is given as 39% and the “Turns (%)” value is on record as 23%. In data set [1] (setting [8]), the “Disordered (%)” value turned out to be 34%, the “Helixes (%)” value is given as 8%, the “Sheets (%)” value is given as 36% and the “Turns (%)” value is 22%. For the same compound, the “cytotoxicity (cell viability, absorption at 570 nm)” value in data set [2] is “not toxic to human cells”. Besides, in data set [3], the “P. viticola (IPP - %)” value is on record as 89.93 ± 11.69 (b) %. In data set [4], the isoelectric point turned out to be 12.4 pH, the net charge result was “+3” and the solubility in water entry is “good solubility in water”. In data set [5], the “bacterial growth (OD620)” value is “no alteration in bacterial growth”. The “P. capsici (PIC - %)” value in data set [6] is 100% and 100 ± 0 (a) %. Moreover, the “P. ultimum (IPP - %)” value in data set [7] was 75% and 75.98 ± 4.54 (c) %.

In the case of `CC(C)C[C@@H]1NC(=O)[C@H](CCCNC(=N)N)NC(=O)CNC(=O)CCNC(=O)[C@H](C(C)C)NC(=O)[C@H](CCCNC(=N)N)NC(=O)[C@H](CC(C)C)NC(=O)[C@H](Cc2c[nH]c3ccccc23)NC(=O)[C@H](CCCNC(=N)N)NC1=O` [CP32, βA-G-R-L-R-W-L-R-V] (cyclo(GRLRWLRV[βAla])), in data set [1] (10 mM phosphate buffer, pH 7), the “Disordered (%)” value is on record as 43%, the “Helixes (%)” value is given as 5%, the “Sheets (%)” value was 34% and the “Turns (%)” value came to 18%. Besides, in data set [1] (TFE (trifluoroethanol)), the “Disordered (%)” value is recorded as 47%, the “Helixes (%)” value is 6%, the “Sheets (%)” value amounted to 29% and the “Turns (%)” value amounted to 18%. In data set [1] (setting [8]), the “Disordered (%)” value was 44%, the “Helixes (%)” value came to 5%, the “Sheets (%)” value is on record as 33% and the “Turns (%)” value amounted to 18%. The “cytotoxicity (cell viability, absorption at 570 nm)” value in data set [2] is “not toxic to human cells”. Besides, the “P. viticola (IPP - %)” value in data set [3] was 95% and 94.92 ± 6.45 (b) %. In data set [4], the isoelectric point amounted to 14 pH, the net charge entry is recorded as “+3” and the solubility in water entry is recorded as “good solubility in water”. Also, the “bacterial growth (OD620)” value in data set [5] was “no alteration in bacterial growth”. Besides, in data set [6], the “P. capsici (PIC - %)” value is listed as 89.25 ± 7.35 (b) %. The “P. ultimum (IPP - %)” value in data set [7] was 85% and 85.42 ± 7.28 (b) %.
